According to patent US12485169B2, “Compounds” (GREY WOLF THERAPEUTICS LIMITED, priority 2018, dated 2025):

Molecular target: T1, Purified ERAP1 (37-941)-10His (ERAP1) (Homo sapiens, UniProt Q9NZ08)
T1 construct: Purified ERAP1 (37-941)-10His (ERAP1)
Experiment: ERAP1 mediated hydrolysis of an amide substrate (10-mer inhibition assay), biochemical system
Conditions: 10-mer substrate, 23° C., 1 h, excitation 279 nm / emission 355 nm; read-out: IC50 vs Decapeptide WRVYEKC(Dnp)ALK-acid (where Dnp is Dinitrophenyl maleimide) (10-mer)

T1 sequence (Q9NZ08 37-941): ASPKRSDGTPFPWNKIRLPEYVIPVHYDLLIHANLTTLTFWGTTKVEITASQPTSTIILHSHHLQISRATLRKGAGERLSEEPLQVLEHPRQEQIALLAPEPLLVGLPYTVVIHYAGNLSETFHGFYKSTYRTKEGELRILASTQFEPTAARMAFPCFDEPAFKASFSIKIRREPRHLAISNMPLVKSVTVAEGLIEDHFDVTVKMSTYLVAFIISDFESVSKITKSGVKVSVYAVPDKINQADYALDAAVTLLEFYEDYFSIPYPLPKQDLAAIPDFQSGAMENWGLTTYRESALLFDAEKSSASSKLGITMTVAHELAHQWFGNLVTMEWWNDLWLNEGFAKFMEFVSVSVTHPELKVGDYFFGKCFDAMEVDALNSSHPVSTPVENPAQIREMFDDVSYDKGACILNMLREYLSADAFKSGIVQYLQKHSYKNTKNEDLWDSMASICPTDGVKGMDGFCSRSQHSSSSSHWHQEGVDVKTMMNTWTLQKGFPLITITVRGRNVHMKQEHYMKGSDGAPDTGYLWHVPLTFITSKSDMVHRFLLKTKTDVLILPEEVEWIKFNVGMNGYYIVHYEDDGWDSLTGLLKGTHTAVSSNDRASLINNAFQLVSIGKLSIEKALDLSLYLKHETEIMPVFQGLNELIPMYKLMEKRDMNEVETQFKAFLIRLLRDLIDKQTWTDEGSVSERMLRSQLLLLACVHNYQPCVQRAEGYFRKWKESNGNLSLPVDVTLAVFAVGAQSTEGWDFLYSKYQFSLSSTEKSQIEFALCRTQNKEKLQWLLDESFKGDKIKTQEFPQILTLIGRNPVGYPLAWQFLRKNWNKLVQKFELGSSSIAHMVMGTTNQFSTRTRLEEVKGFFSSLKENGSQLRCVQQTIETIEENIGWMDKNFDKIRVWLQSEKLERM

IC50 [nM]	Compound
< 500	[2H]C1([2H])C([2H])([2H])C1([2H])c1ccc(C(=O)O)cc1S(=O)(=O)Nc1cc(C#N)ccc1N1CCCCC1 [Example 335, 3-(N-(5-cyano-2-(piperidin-1-yl)phenyl)sulfamoyl)-4-(cyclopropyl-d5)benzoic acid]
< 500	Cc1cc(C#N)cc(NS(=O)(=O)c2cc(C(=O)O)ccc2C2CC2)c1N1CCCCC1 [Example 336, 3-(N-(5-cyano-3-methyl-2-(piperidin-1-yl)phenyl)sulfamoyl)-4-cyclopropylbenzoic acid]
< 5000	CC(C)(C)c1ccc(C(=O)O)cc1S(=O)(=O)Nc1cc(C#N)ccc1N1CCCCC1 [Example 337, 4-(tert-butyl)-3-(N-(5-cyano-2-(piperidin-1-yl)phenyl)sulfamoyl)benzoic acid]
> 5000	C#Cc1ccc(C(=O)O)cc1S(=O)(=O)Nc1cc(C#N)ccc1N1CCCCC1 [Example 338, 3-(N-(5-cyano-2-(piperidin-1-yl)phenyl)sulfamoyl)-4-ethynylbenzoic acid]
